In PubChem BioAssay (NCI):
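Five compound concentrations were applied to cells in 96-well plates for 48 hours; endpoints were derived by simple linear interpolation of the resulting dose-response curve. GI50: concentration for 50% inhibition of growth. TGI is the concentration that stops growth completely.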

Tests used:
Assay in all cases: NCI anticancer screen, dose series, 48 h
COLO 205 colon = system: COLO 205 colon
HCT-15 colon = system: HCT-15 colon
LOX IMVI melanoma = system: LOX IMVI melanoma
MOLT-4 leukemia = system: MOLT-4 leukemia
OVCAR-4 ovarian = system: OVCAR-4 ovarian
SF-539 CNS = system: SF-539 CNS
SK-MEL-2 melanoma = system: SK-MEL-2 melanoma
SN12C renal = system: SN12C renal
SW-620 colon = system: SW-620 colon
EKVX NSCLC = system: EKVX NSCLC

## FC(F)(F)c1cc(NC2=NCCN=C(Nc3cc(C(F)(F)F)cc(C(F)(F)F)c3)SS2)cc(C(F)(F)F)c1
COLO 205 colon
  GI50: 3.47 µM
  TGI: 13.2 µM
HCT-15 colon
  GI50: 3.33 µM
  TGI: 14.2 µM
LOX IMVI melanoma
  GI50: 4.59 µM
  TGI: 16.9 µM
MOLT-4 leukemia
  GI50: 4.71 µM
  TGI: 28 µM
OVCAR-4 ovarian
  GI50: 3.65 µM
  TGI: 17 µM
SF-539 CNS
  GI50: 5.21 µM
  TGI: 18.3 µM
SK-MEL-2 melanoma
  GI50: 4.49 µM
  TGI: 14.3 µM
SN12C renal
  GI50: 3.29 µM
  TGI: 13.1 µM
SW-620 colon
  GI50: 3.71 µM
  TGI: 14.8 µM

## N#CC1CCc2c(c(-c3cn[nH]c3C(F)(F)F)nc3c(F)cc4[nH]ncc4c23)C1 (stereo unspecified)
COLO 205 colon
  GI50: 4.23 µM
  TGI: 16.1 µM
EKVX NSCLC
  GI50: 5.93 µM
  TGI: 28.2 µM
HCT-15 colon
  GI50: 53.1 µM
  TGI: > 100 µM
LOX IMVI melanoma
  GI50: 3.45 µM
  TGI: 15.3 µM
MOLT-4 leukemia
  GI50: 3.49 µM
  TGI: 42.7 µM
SF-539 CNS
  GI50: 3.43 µM
  TGI: 15.4 µM
SK-MEL-2 melanoma
  GI50: 2.4 µM
  TGI: 6.78 µM
SN12C renal
  GI50: 4.22 µM
  TGI: 68.4 µM
SW-620 colon
  GI50: 3.47 µM
  TGI: 38 µM

## O=C(O)Cc1cc(=O)[nH]c2c1C(=O)CCC2
COLO 205 colon
  TGI: > 100 µM
EKVX NSCLC
  TGI: > 100 µM
HCT-15 colon
  TGI: > 100 µM
MOLT-4 leukemia
  TGI: > 100 µM
SK-MEL-2 melanoma
  TGI: > 100 µM
SN12C renal
  TGI: > 100 µM
SW-620 colon
  TGI: > 100 µM

## NC(=S)N/N=C\c1nccc2c(C(F)(F)C(F)(F)C(F)(F)F)cccc12
COLO 205 colon
  GI50: 0.0327 µM
  TGI: 1.9 µM
HCT-15 colon
  GI50: 0.0488 µM
  TGI: > 100 µM
LOX IMVI melanoma
  GI50: 0.0725 µM
  TGI: 1.34 µM
MOLT-4 leukemia
  GI50: 0.054 µM
  TGI: 8.8 µM
OVCAR-4 ovarian
  GI50: 0.0329 µM
  TGI: 1.49 µM
SF-539 CNS
  GI50: 0.193 µM
  TGI: 0.772 µM
SK-MEL-2 melanoma
  GI50: 0.388 µM
  TGI: 3.23 µM
SN12C renal
  GI50: 0.116 µM
  TGI: 2.31 µM
SW-620 colon
  GI50: 0.0538 µM
  TGI: 24.3 µM

## O=C(O)c1cc2c(c3ccsc13)-c1ccccc1CC2
COLO 205 colon
  GI50: 40.5 µM
  TGI: > 100 µM
EKVX NSCLC
  GI50: 50.4 µM
  TGI: > 100 µM
HCT-15 colon
  GI50: 39 µM
  TGI: > 100 µM
LOX IMVI melanoma
  GI50: 40.8 µM
  TGI: > 100 µM
OVCAR-4 ovarian
  GI50: 23.3 µM
  TGI: > 100 µM
SF-539 CNS
  GI50: 36.5 µM
  TGI: > 100 µM
SK-MEL-2 melanoma
  GI50: 26.5 µM
  TGI: 87.5 µM
SN12C renal
  GI50: 32.1 µM
  TGI: > 100 µM
SW-620 colon
  GI50: 40.2 µM
  TGI: > 100 µM

## CCCNc1cccc(-n2ncc3c(N/N=C/c4ccncc4)ncnc32)c1
COLO 205 colon
  GI50: > 25 µM
  TGI: > 25 µM
EKVX NSCLC
  GI50: > 25 µM
  TGI: > 25 µM
HCT-15 colon
  GI50: 1.68 µM
  TGI: > 25 µM
MOLT-4 leukemia
  GI50: > 25 µM
  TGI: > 25 µM
OVCAR-4 ovarian
  GI50: > 9.88 µM
  TGI: > 25 µM
SF-539 CNS
  GI50: > 8.45 µM
  TGI: > 25 µM
SK-MEL-2 melanoma
  GI50: 1.49 µM
  TGI: > 25 µM
SN12C renal
  GI50: > 25 µM
  TGI: > 25 µM
SW-620 colon
  GI50: > 6.13 µM
  TGI: > 25 µM

## C=C1C(=O)O[C@H]2[C@H]1CC/C(COC(=O)/C=C/c1c[nH]c3ccccc13)=C\CC[C@@]1(C)O[C@@H]21
COLO 205 colon
  GI50: 0.225 µM
  TGI: 0.541 µM
EKVX NSCLC
  GI50: 0.238 µM
  TGI: 0.769 µM
HCT-15 colon
  GI50: 0.181 µM
  TGI: 0.425 µM
MOLT-4 leukemia
  GI50: 0.302 µM
  TGI: 1.78 µM
OVCAR-4 ovarian
  GI50: 0.207 µM
  TGI: 0.546 µM
SF-539 CNS
  GI50: 0.261 µM
  TGI: 0.941 µM
SK-MEL-2 melanoma
  GI50: 0.208 µM
  TGI: 0.412 µM
SN12C renal
  GI50: 0.197 µM
  TGI: 0.478 µM
SW-620 colon
  GI50: 0.181 µM
  TGI: 0.446 µM

## Cc1cc(O)c2c(c1)C(=O)C(c1c(C)cc3c(c1O)C(=O)C1OC1C3=O)=CC2=O (stereo unspecified)
EKVX NSCLC
  TGI: 12.5 µM
HCT-15 colon
  TGI: 3.05 µM
LOX IMVI melanoma
  TGI: 5.87 µM
OVCAR-4 ovarian
  TGI: 11.1 µM
SF-539 CNS
  TGI: 10.2 µM
SK-MEL-2 melanoma
  TGI: 24.6 µM
SN12C renal
  TGI: 11.2 µM
SW-620 colon
  TGI: 7.54 µM

## CCC(=O)OC1=CN2C(=NC(c3ccc(N)cc3)=CC2c2cc(OC)c(OC)c(OC)c2)S1 (stereo unspecified)
COLO 205 colon
  GI50: 3.72 µM
  TGI: 10.7 µM
HCT-15 colon
  GI50: 2.47 µM
  TGI: 29.6 µM
LOX IMVI melanoma
  GI50: 3.45 µM
  TGI: 13 µM
MOLT-4 leukemia
  GI50: 3.89 µM
  TGI: 64.7 µM
OVCAR-4 ovarian
  GI50: 4.14 µM
  TGI: 31.9 µM
SF-539 CNS
  GI50: 2.12 µM
  TGI: 6.01 µM
SK-MEL-2 melanoma
  GI50: 5.93 µM
  TGI: 20.4 µM
SN12C renal
  GI50: 4.34 µM
  TGI: 22.2 µM
SW-620 colon
  GI50: 2.89 µM
  TGI: 10.7 µM

## CC(=O)NS(=O)(=O)c1ccc(-n2nc(-c3ccccc3)cc2C2=CC(=O)C=CC2=O)cc1
COLO 205 colon
  GI50: > 100 µM
  TGI: > 100 µM
EKVX NSCLC
  GI50: > 100 µM
  TGI: > 100 µM
HCT-15 colon
  GI50: > 100 µM
  TGI: > 100 µM
LOX IMVI melanoma
  GI50: > 100 µM
  TGI: > 100 µM
MOLT-4 leukemia
  GI50: 16.4 µM
  TGI: 73.7 µM
SK-MEL-2 melanoma
  GI50: > 100 µM
  TGI: > 100 µM
SN12C renal
  GI50: > 100 µM
  TGI: > 100 µM
SW-620 colon
  GI50: 36.6 µM
  TGI: > 100 µM

## Cc1cc(Cl)ccc1NC(=O)CCCC(=O)C(C(=O)c1ccccc1)c1ccccc1 (stereo unspecified)
COLO 205 colon
  TGI: > 100 µM
HCT-15 colon
  TGI: > 100 µM
LOX IMVI melanoma
  TGI: > 100 µM
MOLT-4 leukemia
  TGI: > 100 µM
OVCAR-4 ovarian
  TGI: > 100 µM
SK-MEL-2 melanoma
  TGI: > 100 µM
SN12C renal
  TGI: > 100 µM

## O=C1C2=C(c3ccccc31)C(c1ccc(Cl)cc1)NC(=S)N2 (stereo unspecified)
COLO 205 colon
  TGI: 64.9 µM
EKVX NSCLC
  TGI: > 100 µM
HCT-15 colon
  TGI: 35.9 µM
MOLT-4 leukemia
  TGI: 41.3 µM
OVCAR-4 ovarian
  TGI: 37.8 µM
SF-539 CNS
  TGI: 29.6 µM
SK-MEL-2 melanoma
  TGI: 58.7 µM
SN12C renal
  TGI: 40.3 µM
SW-620 colon
  TGI: 40.5 µM

## CC(C)=CCC/C(C)=C/[C@H]1OC(=O)CC12C[C@H](O)C=CC2=O (stereo partly specified)
COLO 205 colon
  GI50: 1.1 µM
  TGI: 3.72 µM
EKVX NSCLC
  GI50: 2.21 µM
  TGI: 5.24 µM
HCT-15 colon
  GI50: 0.509 µM
  TGI: > 100 µM
SF-539 CNS
  GI50: 0.421 µM
  TGI: 1.26 µM
SK-MEL-2 melanoma
  GI50: 1.74 µM
  TGI: > 45.1 µM
SN12C renal
  GI50: 0.529 µM
  TGI: 2 µM
SW-620 colon
  GI50: 0.446 µM
  TGI: > 100 µM

## Cc1ccc(S(=O)(=O)c2ccsc2N)cc1
COLO 205 colon
  GI50: > 100 µM
  TGI: > 100 µM
HCT-15 colon
  GI50: > 100 µM
  TGI: > 100 µM
LOX IMVI melanoma
  GI50: > 100 µM
  TGI: > 100 µM
MOLT-4 leukemia
  GI50: > 100 µM
  TGI: > 100 µM
OVCAR-4 ovarian
  GI50: 58.3 µM
  TGI: > 100 µM
SF-539 CNS
  GI50: > 100 µM
  TGI: > 100 µM
SK-MEL-2 melanoma
  GI50: > 100 µM
  TGI: > 100 µM
SN12C renal
  GI50: > 100 µM
  TGI: > 100 µM
SW-620 colon
  GI50: > 100 µM
  TGI: > 100 µM

## O=C1NC(O)CCN1C1CC(O)C(CO)O1 (stereo unspecified)
COLO 205 colon
  TGI: > 100 µM
EKVX NSCLC
  TGI: > 100 µM
HCT-15 colon
  TGI: > 100 µM
LOX IMVI melanoma
  TGI: > 100 µM
MOLT-4 leukemia
  TGI: > 100 µM
SF-539 CNS
  TGI: > 100 µM
SK-MEL-2 melanoma
  TGI: > 100 µM
SN12C renal
  TGI: > 100 µM
SW-620 colon
  TGI: > 100 µM

## Cc1ccc(/C=C2\CN(Cc3cn(CCNc4ccnc5cc(Cl)ccc45)nn3)C/C(=C\c3ccc(C)cc3)C2=O)cc1
COLO 205 colon
  GI50: 1.89 µM
  TGI: 3.42 µM
LOX IMVI melanoma
  GI50: 1.76 µM
  TGI: 3.36 µM
OVCAR-4 ovarian
  GI50: 1.66 µM
  TGI: 3.57 µM
SF-539 CNS
  GI50: 1.79 µM
  TGI: 3.26 µM
SK-MEL-2 melanoma
  GI50: 1.99 µM
  TGI: 3.65 µM
SN12C renal
  GI50: 1.93 µM
  TGI: 3.95 µM
